Molecular target: T1, Myriococcum thermophilum cellobiose dehydrogenase (CDH, SEQ ID NO: 1) variant R622N (Thermothelomyces myriococcoides, UniProt A9XK88, R622N)
T1 sequence (A9XK88 22-828 R622N): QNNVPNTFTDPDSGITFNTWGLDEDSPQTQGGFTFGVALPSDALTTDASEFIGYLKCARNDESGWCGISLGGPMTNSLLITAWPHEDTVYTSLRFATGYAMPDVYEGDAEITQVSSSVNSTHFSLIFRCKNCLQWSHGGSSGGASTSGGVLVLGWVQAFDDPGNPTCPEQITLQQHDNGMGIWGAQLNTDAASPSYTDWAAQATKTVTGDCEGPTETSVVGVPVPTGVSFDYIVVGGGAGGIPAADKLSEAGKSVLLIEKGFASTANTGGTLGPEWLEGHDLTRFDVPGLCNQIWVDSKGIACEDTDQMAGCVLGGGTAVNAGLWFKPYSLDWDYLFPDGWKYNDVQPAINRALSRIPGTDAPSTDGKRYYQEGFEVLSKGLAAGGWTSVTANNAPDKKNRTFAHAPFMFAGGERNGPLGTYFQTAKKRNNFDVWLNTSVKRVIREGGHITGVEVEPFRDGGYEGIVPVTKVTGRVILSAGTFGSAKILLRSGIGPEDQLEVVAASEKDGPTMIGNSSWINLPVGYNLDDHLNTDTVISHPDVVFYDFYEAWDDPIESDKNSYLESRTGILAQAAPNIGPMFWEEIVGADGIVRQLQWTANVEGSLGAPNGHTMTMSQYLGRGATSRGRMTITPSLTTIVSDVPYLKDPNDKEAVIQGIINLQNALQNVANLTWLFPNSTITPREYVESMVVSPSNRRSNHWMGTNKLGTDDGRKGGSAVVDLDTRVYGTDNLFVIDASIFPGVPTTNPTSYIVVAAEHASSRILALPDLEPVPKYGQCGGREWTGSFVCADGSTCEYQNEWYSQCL
Assay: Steady-state kinetics, DCIP assay: M. thermophilum CDH R622N
Assay type: biochemical
Settings: apparent, pH 4.5, 30° C.
Procedure: Enzyme activity was assayed at 30° C. using either the DCIP (Karapetyan et al., 2005 Journal of Biotechnology 121: 34-48) or cytochrome c (Canevascini et al., 1991, European Journal of Biochemistry 198: 43-52) as electron acceptor. […] Stock solutions of carbohydrates used for kinetic measurements were prepared in the respective buffer and allowed to stand overnight for mutarotation, while stock solutions of electron acceptors were prepared in water and immediately used. The reaction stoichiometry is 1 for the two-electron acceptor DCIP (1 mole of DCIP reduced per mole of carbohydrate oxidized), but 2 for the one-electron acceptor cytochrome c. Kinetic constants were calculated by fitting the observed data to the Henri-Michaelis-Menten equation or to the adapted model for substrate inhibition using nonlinear least-squares regression and the program SigmaPlot (Systat Software, San Jose, Calif., USA). […]
Recombinant wild-type CDH as well as variants were produced in 1 L baffled flasks. […] Increase in activity was monitored using the DCIP and the cytochrome c enzyme assays. […]
The sample was loaded on a 20 mL PHE Sepharose FF column (HR26/20) equilibrated with 50 mM Na-acetate buffer pH 5.5 containing 20% ammonium sulfate. […] Fractions were tested for CDH activity and pooled according to the highest Reinheitszahl (RZ, calculated from the absorbance ratio 420 nm/280 nm). […]

For `OC[C@H]1O[C@H](O[C@H]2[C@H](O)[C@@H](O)C(O)O[C@@H]2CO)[C@H](O)[C@@H](O)[C@@H]1O` (stereo partly shown) [Maltose, maltose], the kcat/KM was 5.2 M⁻¹ s⁻¹.

Source: patent US10184115B2, “Mutated cellobiose dehydrogenase with increased substrate specificity” (DIRECTSENS GMBH, priority 2012, dated 2019)
